US20220090217A1, “BIOMARKERS AND USES THEREOF IN THE TREATMENT OF CHRONIC HBV INFECTION” (Janssen Sciences Ireland Unlimited Company, priority 2020, published 2022)

Tested on: chronic hepatitis B (CHB) patients
Assay: Onset of clinical relapse after stop of NA treatment (Cox proportional hazard regression)
Assay type: in vivo, human
Conditions: entecavir compared to tenofovir; among the 110 clinical relapsers
Text: Patients and Study Design: In this multi-center prospective study in Taiwan, 242 CHB patients were enrolled while in their last half year of a minimum 3-year treatment regimen with direct antivirals. Of them, 47 were excluded due to protocol violation, screening failure, lost to follow-up, withdrawal by the subject, use of immune related therapy, or on-treatment clinical relapse. An additional 14 were excluded as the analysis required patients to be hepatitis B e-antigen (HBeAg) negative, hepatitis virus (HBV) DNA <60 IU/mL, and alanine transaminase (ALT) <80 U/L at the last on-treatment visit, leaving […] patients eligible for analysis. […] Cumulative incidence of virological and clinical relapse after stop of treatment was assessed by Kaplan-Meier curves (FIGS. 1A and 1B). […] Statistical Analysis of HLA Data: The association between the HLA alleles (at two and four digits resolution for each locus) and diversity (genetic homozygosity and HED score, independently) and onset of relapse was assessed using a Cox model (Harrell et al., JAMA: The Journal of the American Medical Association, 1982, 247: 2543) including HBsAg level at the last visit on treatment (high (≥100 IU/mL) vs. low (<100 IU/mL)) and the antiviral treatment at enrolment (tenofovir vs. entecavir) as main effects. […]

C=C1[C@H](CO)[C@@H](O)C[C@@H]1n1cnc2c(=O)[nH]c(N)nc21 [entecavir]
onset of clinical relapse later after stopping treatment, on average: 100 days
